Test [1] concerns neurons with Aβ treatment. The test is described as follows: Cell survival assay of various compositions (FIG. 29). The format is cell-based. To be noted: Aβ control 61.7592%. The protocol:
(§1) Orientin, vitexin, and bergenin were detected as possible targets based on identification via Liquid Chromatography—mass Spectrometry (LC-MS) from Synaptecx-227 and verified via mass spectrometric (MS) analysis. Aβ1-42 defibrillation analysis and Aβ1-42 cell survival were performed for various combinations of the above identified targets.
In the control sample with Aβ treatment, the % of surviving neurons is 61.7592% (p value<0.0001 ****).

The next test has as its target T1, Aβ (Homo sapiens, UniProt P05067).
T1 construct: aggregated amyloid beta 1-42 (Aβ1-42)
The test is described as follows: Fibrillization assay of various compositions (FIG. 28). The format is biochemical. Particulars: control 100% fibrillization. Here is the method: as §1
The sample treated with a 20 micromolar concentration of orientin, 20 micromolar concentration of vitexin, and 50 micromolar concentration of bergenin decreased Aβ fibrillization by 48.9989% (p value<0.0001 ****).

The target in another test is T2, Aβ1-42 protein (Homo sapiens, UniProt P05067).
T2 construct: aggregated amyloid beta 1-42 (Aβ1-42)
T2 sequence (P05067 672-713): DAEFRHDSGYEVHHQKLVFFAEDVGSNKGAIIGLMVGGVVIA
The test is described as follows: Percentage of Aβ1-42 protein fibrillization by ThT fluorescence (FIG. 18, 19). The format is biochemical. More on the design: percentage of Aβ fibrillization compared to the control: unit of the concentration uncertain. Particulars: for effect on Aβ protein aggregation and/or tau protein accumulation: incubated with Aβ1-42 for 24 hours at 37° C. Here is the method:
FIG. 18 is an analysis showing a percentage of Aβ1-42 protein fibrillization using thioflavin T (ThT) florescence in various samples. The sample on the left is a control of Aβ1-42 protein. […] The third sample from the left is Aβ protein treated with 10 mM Aconitine. And the fourth sample from the left is Aβ1-42 protein treated with 20 mM Aconitine.
FIG. 19 is an analysis showing an amount of Aβ1-42 protein fibrillization using thioflavin T (ThT) fluorescence in various samples. The sample on the left is a control of Aβ1-42 protein. The second sample from the left is Aβ1-42 protein treated with 200 mM of bergenin. The third sample from the left is Aβ1-42 protein treated with 300 mM bergenin.
The various compounds were incubated with Aβ1-42 for 24 hours at 37° C. to determine the effect of compounds on defibrillation. Further, testing was done to determine an effect of the compounds on tau protein.
Referring to FIG. 18, FIG. 18 is a bar graph 1800 showing a percentage of Aβ protein fibrillization in various samples. The sample on the left is a control 1805 of Aβ protein. […] The third sample 1815 from the left is Aβ protein treated with 10 mM aconitine. And the fourth sample 1820 from the left is Aβ protein treated with 20 mM aconitine.
The intensity for the control 1805 is normalized to 100.
The third sample 1815 includes a concentration of 10 mM aconitine. […] The fourth sample 1820 includes a concentration of 20 mM aconitine.
Referring to FIG. 19, FIG. 19 is a bar graph 1900 showing an amount of Aβ protein in various samples. The sample on the left is a control 1905 of Aβ protein. The second sample 1910 from the left is Aβ protein treated with 200 mM bergenin. The third sample 1915 from the left is Aβ protein treated with 300 mM bergenin.
The control 1905 on the left side of the bar graph 1900, which just contains Aβ protein is normalized to 100. The measurement of the percentage of the Aβ protein in the control 1905 that aggregates into Aβ fibrils is compared against solutions containing bergenin.
The second sample 1910 contains 200 mM bergenin. […] The third sample 1915 contained 300 mM bergenin.

T1 sequence (P05067 672-713): as above

For the compound `O=C(N[C@@H](Cc1ccccc1)C(=O)N[C@H](CO)Cc1ccccc1)c1ccccc1` [aurantiamide], the cell survival in test [1] (10 micromolar) turned out to be 71.5173%. Moreover, the “decrease of Aβ fibrillization” value on Aβ (20 micromolar) is reported as 24.8578%.

As for `O=c1cc(-c2ccc(O)c(O)c2)oc2c([C@@H]3O[C@H](CO)[C@@H](O)[C@H](O)[C@H]3O)c(O)cc(O)c12` [orientin], in test [1] (20 micromolar), the cell survival is 77.8195%. Moreover, the “decrease of Aβ fibrillization” value on Aβ (20 micromolar) was 29.2843%.

Turning to `O=c1cc(-c2ccc(O)cc2)oc2c([C@@H]3O[C@H](CO)[C@@H](O)[C@H](O)[C@H]3O)c(O)cc(O)c12` [vitexin], the cell survival in test [1] (20 micromolar) stood at 73.4208%. In addition, the “decrease of Aβ fibrillization” value on Aβ (20 micromolar) stood at 28.8579%.

For `COc1c(O)cc2c(c1O)[C@@H]1O[C@H](CO)[C@@H](O)[C@H](O)[C@H]1OC2=O` [bergenin], the cell survival in test [1] (50 micromolar) is reported as 76.2308%. Also, the “effect on Aβ protein aggregation and/or tau protein accumulation” value (from here on “effect”) on Aβ1-42 protein is reported as “reducing a percentage of Aβ protein aggregation as compared to a control and/or reducing a percentage of tau protein accumulation as compared to a control”. Further, the “decrease of Aβ fibrillization” value on Aβ (50 micromolar) is recorded as 31.9532%.

With `CCN1C[C@]2(COC)[C@H](O)C[C@H](OC)[C@@]34[C@@H]5C[C@@]6(O)[C@H](OC(=O)c7ccccc7)[C@@H]5[C@@](OC(C)=O)([C@@H]([C@H](OC)[C@H]23)[C@@H]14)[C@@H](O)[C@@H]6OC` [aconitine], the “percentage of Aβ fibrillization compared to the control” value on Aβ1-42 protein (10 (unit uncertain)) is reported as 82.0%; at Aβ1-42 protein (20 (unit uncertain)), 74.8%. Besides, the “effect” value at Aβ1-42 protein was “reducing a percentage of Aβ protein aggregation as compared to a control and/or reducing a percentage of tau protein accumulation as compared to a control”.

Consider swatinine, for which, on Aβ1-42 protein, the “effect” value is “reducing a percentage of Aβ protein aggregation as compared to a control and/or reducing a percentage of tau protein accumulation as compared to a control”.

The values above are taken from patent US20230165884A1, “METHOD AND COMPOSITION FOR TREATING ALZHEIMERS” (Cognitive Synergy Corporation, priority 2021, published 2023).
